The source of these data is ChEMBL document CHEMBL4483862, “Open-source discovery of chemical leads for next-generation chemoprotective antimalarials” (2018).

The subject of this experiment is Plasmodium berghei. Kind of experiment: Luciferase/luciferin-expressing antifolate-resistant parasites were used to infect a culture of HepG2 cells that were pre-incubated with compounds. Infected hepatocytes emit light due to the luciferase reaction. Assay results are presented as the percent inhibition of light emission compared to control. […]. It is filed as functional. To be noted: sporozoite; for IC90: read-out: LUCIFERASE INFECTION ASSAY - IC90.

The mark [1] stands for this setting: read-out: LUCIFERASE INFECTION ASSAY - IC50.

The structures appear in SMILES notation. Some results are limits rather than exact numbers.

Usually IC50 stands for the midpoint of a concentration-inhibition curve. What is called IC90 is the point of the concentration-response curve where the effect stands at 90%.

On to `CC(C)(C)NC(=S)Nc1ccccc1N1CCCCC1`, for which the IC90 was more than 11.3 µM. The IC50 (HEPG2TOX_HILL_SLOPE 2.33, HEPG2TOX_R_SQUARED 0.936, read-out: LUCIFERASE INFECTION ASSAY - IC50) is more than 11.3 µM.

In the case of `O=C(Nc1ccc(C(=O)N(CCO)Cc2cccc(OCc3ccccc3Cl)c2)cc1)C1CC1`, the IC90 is more than 10 µM. In addition, where the note is “PBLUC_HILL_SLOPE 3.35, PBLUC_R_SQUARED 0.615, read-out: LUCIFERASE INFECTION ASSAY - IC50”, the IC50 stood at 6.85 µM.

Take `Nc1cc(Cl)ccc1Oc1ccc2ccccc2c1`: the IC90 was more than 10 µM. The IC50 under setting [1] is more than 10 µM.

Consider `Cc1nn(-c2cccc(C(F)(F)F)c2)c2c1C=Nc1cc(S(=O)(=O)N3CCOCC3)ccc1O2`, for which the IC90 was more than 10 µM. The IC50 (PBLUC_HILL_SLOPE 4.52, PBLUC_R_SQUARED 0.617, read-out: LUCIFERASE INFECTION ASSAY - IC50) was 8.73 µM.

With `CCCNC(=O)C1(C)CCN(Cc2ccc3ccccc3n2)C1` (stereo unspecified), the IC90 is more than 10.6 µM. In addition, under setting [1], the IC50 was more than 10.6 µM.

`CC(C)(C)c1nnc2sc(SCC(=O)NC(c3ccccc3)c3ccccc3)nn2c1=O`: the IC90 was more than 10 µM. Under “FFLUC_HILL_SLOPE 10.4, FFLUC_R_SQUARED 0.278, PBLUC_HILL_SLOPE 1.88, PBLUC_R_SQUARED 0.683, read-out: LUCIFERASE INFECTION ASSAY - IC50”, the IC50 was found to be 4.26 µM.

Take `Cn1ccc2cc(-c3cn4c(-c5cccc(CO)c5)cnc4cn3)ccc21`: the IC90 came out at 1.22 µM. In addition, the IC50 (HEPG2TOX_HILL_SLOPE 0.928, HEPG2TOX_R_SQUARED 0.91, PBLUC_HILL_SLOPE 2.22, PBLUC_R_SQUARED 0.697, read-out: LUCIFERASE INFECTION ASSAY - IC50) worked out at 0.452 µM.

As for `CCCN1CCc2nc(NCc3ccc(Oc4ccccc4)cc3)ncc2C1`, the IC90 is more than 8.81 µM. For the same molecule, the IC50 under setting [1] is more than 8.81 µM.

`Cc1ccsc1/C=N/Nc1nc2ccccc2nc1C(F)(F)F`: the IC90 is 9.51 µM. Further, the IC50 (HEPG2TOX_HILL_SLOPE 2.86, HEPG2TOX_R_SQUARED 0.79, PBLUC_HILL_SLOPE 19.7, PBLUC_R_SQUARED 0.0461, read-out: LUCIFERASE INFECTION ASSAY - IC50) was found to be 8.5 µM.

Regarding `Cc1nc(N2CCN(Cc3ccccc3)CC2)nc2c1C(=O)CC(C)C2` (stereo unspecified), the IC90 is more than 9.42 µM. In addition, the IC50 under setting [1] was more than 9.42 µM.

Consider `O=C(CC(NC(=O)c1ccccc1Cl)c1ccccc1)Oc1ccc2c(c1)OCO2` (stereo unspecified), for which the IC90 is more than 10 µM. For the same molecule, under setting [1], the IC50 is more than 10 µM.

For `COc1ccc(CC(N)c2csc(NC(=O)Nc3cccc(C(F)(F)F)c3)n2)cc1` (stereo unspecified), the IC90 is more than 7.56 µM. In addition, under “PBLUC_HILL_SLOPE 3.34, PBLUC_R_SQUARED 0.752, read-out: LUCIFERASE INFECTION ASSAY - IC50”, the IC50 was found to be 5.46 µM.

For the molecule `CSc1cccc(N2C(=O)C=C(C)C2=O)c1`, the IC90 was more than 14.1 µM. Also, where the note is “PBLUC_HILL_SLOPE 2.08, PBLUC_R_SQUARED 0.24, read-out: LUCIFERASE INFECTION ASSAY - IC50”, the IC50 was 13.4 µM.

Take `Nc1ncc(-c2ccc(-c3ccccc3)cc2F)cc1-c1cncc2ccccc12`: the IC90 is more than 8.43 µM. For the setting “PBLUC_HILL_SLOPE 1.93, PBLUC_R_SQUARED 0.0355, read-out: LUCIFERASE INFECTION ASSAY - IC50”, the IC50 is more than 8.43 µM.

Consider `CC(C)c1ccc(/C=N/NC(=O)CC#N)cc1`, for which the IC90 was more than 14.4 µM. Further, the IC50 under setting [1] is more than 14.4 µM.

As for `O=C(Nc1csc([N+](=O)[O-])c1)Nc1ccccc1Cl`, the IC90 was more than 11.1 µM. Further, the IC50 (PBLUC_HILL_SLOPE 16.6, PBLUC_R_SQUARED 0.0194, read-out: LUCIFERASE INFECTION ASSAY - IC50) was found to be 11 µM.

`COc1ccc(NS(=O)(=O)c2cc(NC(=O)c3cccc(OC(F)F)c3)ccc2N2CCCCC2)cc1`: the IC90 was more than 10 µM. For the same molecule, where the note is “FFLUC_HILL_SLOPE 8.96, FFLUC_R_SQUARED 0.85, read-out: LUCIFERASE INFECTION ASSAY - IC50”, the IC50 was more than 10 µM.

With `Cc1ccccc1-n1c(C)cc(/C=C(\C#N)C(=O)NCC2CCCO2)c1C` (stereo unspecified), the 90% effect concentration (IC90) was determined as 6.25 µM. For the same molecule, the IC50 (PBLUC_HILL_SLOPE 1.57, PBLUC_R_SQUARED 0.725, read-out: LUCIFERASE INFECTION ASSAY - IC50) came out at 1.55 µM.

On to `CNC(=O)c1ccc(CN(Cc2ccc(SC)cc2)Cc2ccco2)cc1`, for which the IC90 came out at 0.736 µM. Also, where the note is “PBLUC_HILL_SLOPE 13.4, PBLUC_R_SQUARED 0.501, read-out: LUCIFERASE INFECTION ASSAY - IC50”, the IC50 turned out to be 0.624 µM.

As to `COc1cc(/C=C(\C#N)c2nc3ccccc3[nH]2)ccc1OC(=O)c1cc2c(C)nn(-c3ccccc3)c2s1`, the IC90 is more than 10 µM. The IC50 (FFLUC_HILL_SLOPE 1.24, FFLUC_R_SQUARED 0.777, PBLUC_HILL_SLOPE 2.61, PBLUC_R_SQUARED 0.768, read-out: LUCIFERASE INFECTION ASSAY - IC50) worked out at 5.91 µM.

Take `COC(=O)c1c(NC(=O)C2CCOC2)c2cc(NCC(C)(C)C)cnc2n1CCc1c[nH]c2ccccc12` (stereo unspecified): the IC90 was more than 6.38 µM. Further, the IC50 (PBLUC_HILL_SLOPE 3.23, PBLUC_R_SQUARED 0.492, read-out: LUCIFERASE INFECTION ASSAY - IC50) worked out at 4.09 µM.

Take `CCCCCn1c(Sc2ncc([N+](=O)[O-])s2)n[nH]c1=O`: the IC90 was more than 10.5 µM. In addition, the IC50 (HEPG2TOX_HILL_SLOPE 11.8, HEPG2TOX_R_SQUARED 0.641, PBLUC_HILL_SLOPE 4, PBLUC_R_SQUARED 0.202, read-out: LUCIFERASE INFECTION ASSAY - IC50) came to 7 µM.

In the case of `O=C(Nc1cccc(Cl)c1)c1cccc(NC(=O)c2cccs2)c1`, the 90% effect concentration (IC90) is 9.24 µM. Moreover, the IC50 (HEPG2TOX_HILL_SLOPE 11.6, HEPG2TOX_R_SQUARED 0.635, PBLUC_HILL_SLOPE 2.89, PBLUC_R_SQUARED 0.488, read-out: LUCIFERASE INFECTION ASSAY - IC50) was determined as 4.32 µM.

Consider `Cc1cc(=O)[nH]c(SCC(=O)c2cc(C)n(-c3ccccc3)c2C)c1C#N`, for which the IC90 is more than 10 µM. For the same molecule, the IC50 under setting [1] was more than 10 µM.

`COc1ccc(-c2cnc3cnc(-c4cccc(C(=O)N(C)C)c4)cn23)cc1`: the IC90 was 4.08 µM. For the same molecule, the half-maximal inhibitory concentration (IC50) (PBLUC_HILL_SLOPE 11.5, PBLUC_R_SQUARED 0.453, read-out: LUCIFERASE INFECTION ASSAY - IC50) came to 3.37 µM.

In the case of `NS(=O)(=O)c1ccc(CCNc2nn3c(-c4cccc(OC(F)(F)F)c4)cnc3s2)cc1`, the IC90 was more than 6.83 µM. Under “FFLUC_HILL_SLOPE 3.32, FFLUC_R_SQUARED 0.88, HEPG2TOX_HILL_SLOPE 6.82, HEPG2TOX_R_SQUARED 0.258, PBLUC_HILL_SLOPE 3.52, PBLUC_R_SQUARED 0.409, read-out: LUCIFERASE INFECTION ASSAY - IC50”, the IC50 is 4 µM.

In the case of `CS(=O)(=O)Nc1ccc(-c2csc(NC(=O)c3ccc4ncsc4c3)n2)cc1`, the IC90 is more than 10 µM. Under setting [1], the IC50 is more than 10 µM.

For `CCOC(=O)C1(C)CCCN1C(=O)c1cccs1` (stereo unspecified), the IC90 is more than 12.3 µM. In addition, under setting [1], the IC50 was more than 12.3 µM.

Take `COc1ccc(Cn2nc(C(=O)NC3CCCC3)c3c2CCN(Cc2ccc4c(c2)CCO4)C3)cc1`: the IC90 was more than 6.78 µM. Besides, the IC50 (PBLUC_HILL_SLOPE 3.3, PBLUC_R_SQUARED 0.745, read-out: LUCIFERASE INFECTION ASSAY - IC50) was 3.79 µM.

On to `CCC(C)NC(=O)c1c(NC(=O)c2cccc(C)c2)nc2ccc(C)cn12` (stereo unspecified), for which the IC90 is 6.6 µM. Also, the IC50 (HEPG2TOX_HILL_SLOPE 8.22, HEPG2TOX_R_SQUARED 0.0887, PBLUC_HILL_SLOPE 4.24, PBLUC_R_SQUARED 0.444, read-out: LUCIFERASE INFECTION ASSAY - IC50) turned out to be 3.93 µM.

In the case of `CCN(CC(=O)Nc1ccccc1C(F)(F)F)CC(=O)N1CCc2ccccc21`, the IC90 was 7.42 µM. Moreover, the concentration for half-maximal inhibition (IC50) (HEPG2TOX_HILL_SLOPE 12.9, HEPG2TOX_R_SQUARED 0.752, PBLUC_HILL_SLOPE 284, PBLUC_R_SQUARED 0.135, read-out: LUCIFERASE INFECTION ASSAY - IC50) was 7.36 µM.

For `COc1cccc(-c2cc3c(Nc4cccc(N(C)C)c4)nccc3n2C)c1`, the IC90 is 8.25 µM. Besides, for the setting “PBLUC_HILL_SLOPE 3.57, PBLUC_R_SQUARED 0.3, read-out: LUCIFERASE INFECTION ASSAY - IC50”, the IC50 worked out at 4.46 µM.

`CCC(CC)CN1C[C@H](OCc2ccccc2)C[C@H]1C(=O)NC(c1ccccc1)c1ccccc1`: the IC90 was more than 7.01 µM. Under setting [1], the IC50 is more than 7.01 µM.

On to `NS(=O)(=O)c1ccc(Nc2nc(-c3cc(F)ccc3F)cs2)cc1`, for which the IC90 was more than 10 µM. In addition, the IC50 (FFLUC_HILL_SLOPE 0.845, FFLUC_R_SQUARED 0.288, PBLUC_HILL_SLOPE 13.0, 1.97, PBLUC_R_SQUARED 0.591, 0.616, read-out: LUCIFERASE INFECTION ASSAY - IC50) is 8.85 µM.

As for `O=C(Nc1nc2ccccc2[nH]1)C(Sc1ccccc1)c1ccccc1` (stereo unspecified), the IC90 is more than 10 µM. For the same molecule, the IC50 under setting [1] was more than 10 µM.

With `Cc1cccc(C)c1N(C(=O)CC(c1ccccc1)c1ccccc1)c1nc2ccccc2s1`, the IC90 was more than 10 µM. Besides, the IC50 (FFLUC_HILL_SLOPE 6.55, FFLUC_R_SQUARED 0.86, PBLUC_HILL_SLOPE 3.66, PBLUC_R_SQUARED 0.235, read-out: LUCIFERASE INFECTION ASSAY - IC50) was determined as 7.33 µM.

With `CC(=O)c1cccc(-c2cnc3ccc(-c4cccc(OC(F)(F)F)c4)nn23)c1`, the IC90 was more than 10 µM. For the same molecule, the IC50 (HEPG2TOX_HILL_SLOPE 7.2, HEPG2TOX_R_SQUARED 0.65, PBLUC_HILL_SLOPE 0.974, PBLUC_R_SQUARED 0.617, read-out: LUCIFERASE INFECTION ASSAY - IC50) is 1.38 µM.

In the case of `O=C1C=C/C(=N/N(Cc2ccccc2)c2ccccc2)O1`, the IC90 was more than 10 µM. For the same molecule, the IC50 under setting [1] was more than 10 µM.
